Results taken from patent publication US11944605B2, “Rapamycin analogs and uses thereof” (Janssen Pharmaceutica NV, priority 2018, dated 2024).
≈ marks a conversion by molar mass, not a printed value. Entries after “also recorded” stand apart in the source; their conditions may differ.

How the values were obtained:
[1] = test system: pS6K1 (p-p70 S6 Kinase (Thr389)) in MCF-7 cells; assay: AlphaLISA Ultra pS6K1 Assay; format: cell-based; details: Homo sapiens, 1.5 h; MCF7 cells, 90 min
How it was run: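 MCF-7 cells were seeded for 20–24 h, refed with fresh medium for 2 h, then treated with compound for 90 min at 0.5% final DMSO. Lysates were frozen at −80 °C, thawed and assayed by AlphaLISA with acceptor then donor beads, 2 h each.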

[2] = test system: pAKT (p-Akt 1/2/3 (Ser473)) in MCF-7 cells; assay: AlphaLISA Ultra pAKT Assay; format: cell-based; details: Homo sapiens, 1.5 h; MCF7 cells, 90 min
Method: AlphaLISA Ultra pAKT Assay
1. MCF-7 cells in Corning 3701 plate and incubate for 20˜24 hour.
16,000˜20,000 cells will be seeded in 36 μL medium per well.
2. Change the culture medium with fresh medium and incubate for another 90 minutes.
3. […]
4. Aspirate […] by HAMILTON, 10 μL rest per well.
5. Add 10 μL 2× lysis buffer using HAMILTON; total volume in wells is 20 μL. Allow cells to shake for 30 min. Cover plate by plastic foil and store plate at −80° C. up to analysis.
6. Thaw cell lysate at RT and transfer 10 ul lysate to assay plate (Optiplate-384).
7. Add 5 μL acceptor beads into assay plate and incubation for 2 hours
8. Add 5 μL donor beads and incubation for 2 hours
9. Count the plate by EnSpire Multimode Plate Reader

mTORC1 over mTORC2 = assay: mTORC1 selectivity over mTORC2 at 24 hrs (Western blot based pS6K1 and pAKT assay); format: cell-based; details: 24 hrs
[3] = Solubility in 100 mM phosphate buffer (pH 7.4); format: physicochemical; details: pH 7.4, aqueous buffer
From the text: The compound numbers correspond to the compound numbers in Table 1.

[4] = test system: mTORC1 pathway in tuberous sclerosis 2 (TSC2) positive (TSC+/+) MEF cells; assay: Western blot, mTORC1 pathway in TSC+/+ MEF cells; format: cell-based, mouse; details: 24 hours
Method: (§1) The methods employed were substantially similar to those described above. Compounds were evaluated in PC3 cells, Jurkat cells, wild-type mouse embryotic fibroblast (MEF) cells, tuberous sclerosis 2 (TSC2) negative (TSC −/−) MEF cells, and tuberous sclerosis 2 (TSC2) positive (TSC +/+) MEF cells. Cells were incubated with compounds of the present invention for various time periods (e.g., 5 minutes, 15 minutes, 30 minutes, 90 minutes, 24 hours, or 48 hours), and evaluated according to known methodologies, such as those herein described.

[5] = test system: mTORC2 (Akt phosphorylation) in TSC+/+ MEF cells; assay: Western blot, mTORC2 pathway (pAkt) in TSC+/+ MEF cells; format: cell-based, mouse; details: 24 hours
Method: as §1

[6] = test system: mTORC2 pathway (Akt phosphorylation) in PC3 cells; assay: Western blot, mTORC2 pathway (pAkt) in PC3 cells; format: cell-based; details: 24 hours
Method: (§2) Western Blot Based pS6K1 and pAKT Assay at 24 and 48 Hour Timepoints
(§3) 1. Seed six well plate with 500,000 PC3 cells per well and incubate for 20˜24 hour.
(§4) 2. Add compounds into the cell plate. Incubate for 24 to 48 hours.
(§5) 4. Plate is placed on ice and the media is removed via aspiration. The wells are washed with 1 mL of 1× PBS and then fully aspirated.
(§6) 5. 110 μL of 1% Triton Lysis Buffer is added and each well is scraped vigorously.
(§7) 6. Cell homogenates are transferred to 1.5 mL eppendorf tubes on ice and spun down at 4° C. for 10 minutes at 10,000 rpm.
(§8) 9. The membranes were washed 3× with TBS-T with a 5 minute incubation between each wash then incubated with secondary antibody (LiCor IRDye 800 Donkey Anti Rabbit) for at least 30 minutes.
(§9) 10. The membranes were washed 3× with TBS-T with a 5 minute incubation between each wash.
(§10) 11. The gels were then incubated for 5 minutes with PBS at room temperature then imaged using a Li-Cor.
as §1

[7] = test system: mTORC1 pathway (pS6K1 T389) in PC3 cells; assay: Western blot, mTORC1 pathway (pS6K1) in PC3 cells; format: cell-based; details: PC3 cells, 24 hours
Method: as §2, §3, §4, §5, §6, §7, §8, §9, §10, §1

[8] = test system: 4E-BP1 phosphorylation in PC3 cells; assay: Western blot, 4E-BP1 phosphorylation in PC3 cells; format: cell-based; details: 24 hours

For `CO[C@@H]1C[C@H](C[C@@H](C)[C@@H]2CC(=O)[C@H](C)/C=C(\C)[C@@H](O)[C@@H](OC)C(=O)[C@H](C)C[C@H](C)/C=C/C=C/C=C(\C)[C@@H](OCCOCCO)C[C@@H]3CC[C@@H](C)[C@@](O)(O3)C(=O)C(=O)N3CCCC[C@H]3C(=O)O2)CC[C@H]1O` [I-20], the IC50 [1] was 0.1 to 1 nM, the IC50 [2] was at least 100 nM and the “mTORC1 selective @ 24 hrs” value (mTORC1 over mTORC2) was “YES”. For the same compound, the solubility [3] was 30 to 60 µM (≈ 29.6 to 59.3 µg/mL), the “inhibition of the mTORC1 pathway” value [4] was “moderate concentration dependent inhibition” and the “inhibition of mTORC2 (Akt phosphorylation)” value (“inhibition of mTORC2” for short) [5] was “do not inhibit”.
With `CO[C@@H]1C[C@H](C[C@@H](C)[C@@H]2CC(=O)[C@H](C)/C=C(\C)[C@@H](O)[C@@H](OC)C(=O)[C@H](C)C[C@H](C)/C=C/C=C/C=C(\C)C(OCCOCCOCCOCCOCCOCCOCCOCCOCCO)C[C@@H]3CC[C@@H](C)[C@@](O)(O3)C(=O)C(=O)N3CCCC[C@H]3C(=O)O2)CC[C@H]1O` (stereo partly drawn) [I-97, (21E,23E,25E,26E,46R,47S,48R,49R,51S,53S,56S,57R,58R,67R)-57, 67-dihydroxy-55-[2-[2-[2-[2-[2-[2-[2-[2-(2-hydroxyethoxy)ethoxy]ethoxy]ethoxy]ethoxy]ethoxy]ethoxy]ethoxy]ethoxy]-56-[(1R)-2-[(1S,3R,4R)-4-hydroxy-3-methoxy-cyclohexyl]-1-methyl-ethyl]-58-methoxy-46, 47,48,49,59,60-hexamethyl-78,79-dioxa-68-azatricyclohexatriaconta-21, 23,25(59),26(60)-tetraene-61,62,63,64,65-pentone] the IC50 [1] was 1 to 10 nM, the “mTORC1 selective @ 24 hrs” value (mTORC1 over mTORC2) was “YES” and the “inhibition of mTORC2” value [6] was “do not inhibit”. For the same compound, the “inhibition of the mTORC1 pathway” value [4] was “modest concentration dependent inhibition” and the “inhibition of mTORC2” value [5] was “do not inhibit”.
With `CO[C@@H]1C[C@H](C[C@@H](C)[C@@H]2CC(=O)[C@H](C)/C=C(\C)[C@@H](O)[C@@H](OC)C(=O)[C@H](C)C[C@H](C)/C=C/C=C/C=C(\C)C(OCCS(=O)(=O)CCS(=O)(=O)CCO)C[C@@H]3CC[C@@H](C)[C@@](O)(O3)C(=O)C(=O)N3CCCC[C@H]3C(=O)O2)CC[C@H]1O` (stereo partly drawn) [I-102, (21E,23E,25E,26E,34R,35S,36R,37R,39R,41S,44S,45R,46R,55S)-45, 55-dihydroxy-43-[2-[2-(2-hydroxyethylsulfonyl)ethylsulfonyl]ethoxy]-44-[(1S)-2-[(1S,3R, 4R)-4-hydroxy-3-methoxy-cyclohexyl]-1-methyl-ethyl]-46-methoxy-34,35,36,37,47,48-hexamethyl-70, 71-dioxa-56-azatricyclohexatriaconta-21,23,25(47),26(48)-tetraene-49,50,51,52,53-pentone] the IC50 [1] was 10 to 100 nM, the “mTORC1 selective @ 24 hrs” value (mTORC1 over mTORC2) was “YES” and the “inhibition of the mTORC1 pathway” value [7] was “strong inhibition”. The “inhibition of mTORC2” value [6] was “do not inhibit” and the “inhibition of 4E-BP1 phosphorylation” value [8] was “no inhibition”.
With `CO[C@@H]1C[C@H](C[C@@H](C)[C@@H]2CC(=O)[C@H](C)/C=C(\C)[C@@H](O)[C@@H](OC)C(=O)[C@H](C)C[C@H](C)/C=C/C=C/C=C(\C)C(OCP(=O)(CO)CO)C[C@@H]3CC[C@@H](C)[C@@](O)(O3)C(=O)C(=O)N3CCCC[C@H]3C(=O)O2)CC[C@H]1O` (stereo partly drawn) [I-106, (21E,23E,25E,26E,31R,32S,33R,34R,36S,38S,41S,42R,43R,52R)-40-[bis(hydroxymethyl)phosphorylmethoxy]-42,52-dihydroxy-4I-[(1R)-2-[(1S,3R,4R)-4-hydroxy-3-methoxy-cyclohexyl]-1-methyl-ethyl]-43-methoxy-31, 32,33,34,44,45-hexamethyl-65,66-dioxa-53-azatricyclohexatriaconta-21, 23,25(44),26(45)-tetraene-46,47,48,49,50-pentone] the IC50 [1] was 0.1 to 1 nM, the “mTORC1 selective @ 24 hrs” value (mTORC1 over mTORC2) was “YES” and the “inhibition of the mTORC1 pathway” value [7] was “strong inhibition”. For the same compound, the “inhibition of mTORC2” value [6] was “do not inhibit” and the “inhibition of 4E-BP1 phosphorylation” value [8] was “no inhibition”.
With `CO[C@@H]1C[C@H](C[C@@H](C)[C@@H]2CC(=O)[C@H](C)/C=C(\C)[C@@H](O)[C@@H](OC)C(=O)[C@H](C)C[C@H](C)/C=C/C=C/C=C(\C)[C@@H](OCCOCCOCCO)C[C@@H]3CC[C@@H](C)[C@@](O)(O3)C(=O)C(=O)N3CCCC[C@H]3C(=O)O2)CC[C@H]1OCCO` [I-110, (21E,23E,25E,26E,36R,37S,38R,39R,41S,43S,45S,46S,47R,48R,57R)-47, 57-dihydroxy-45-[2-[2-(2-hydroxyethoxy)ethoxy]ethoxy]-46-[(1R)-2-[(1S,3R, 4R)-4-(2-hydroxyethoxy)-3-methoxy-cyclohexyl]-1-methyl-ethyl]-48-methoxy-36,37,38,39,49,50-hexamethyl-68, 69-dioxa-58-azatricyclohexatriaconta-21,23,25(49),26(50)-tetraene-51, 52,53,54,55-pentone] the IC50 [1] was 0.1 to 1 nM, the “mTORC1 selective @ 24 hrs” value (mTORC1 over mTORC2) was “YES” and the “inhibition of the mTORC1 pathway” value [4] was “moderate concentration dependent inhibition”. For the same compound, the “inhibition of mTORC2” value [5] was “do not inhibit”.
In the case of `CO[C@@H]1C[C@H](C[C@@H](C)[C@@H]2CC(=O)[C@H](C)/C=C(\C)[C@@H](O)[C@@H](OC)C(=O)[C@H](C)C[C@H](C)/C=C/C=C/C=C(\C)C(OCCCCCO)C[C@@H]3CC[C@@H](C)[C@@](O)(O3)C(=O)C(=O)N3CCCC[C@H]3C(=O)O2)CC[C@H]1O` (stereo partly drawn) [I-113, (21E,23E,25E,26E,33R,34S,35R,36R,38S,40S,43S,44R,45R,54R)-44, 54-dihydroxy-43-[(1R)-2-[(1S,3R,4R)-4-hydroxy-3-methoxy-cyclohexyl]-1-methyl-ethyl]-42-(5-hydroxypentoxy)-45-methoxy-33, 34,35,36,46,47-hexamethyl-65,66-dioxa-55-azatricyclohexatriaconta-21, 23,25(46),26(47)-tetraene-48,49,50,51,52-pentone], the IC50 [1] is reported as 0.1 to 1 nM, the “mTORC1 selective @ 24 hrs” value (mTORC1 over mTORC2) is reported as “YES” and the “inhibition of the mTORC1 pathway” value [7] is reported as “strong inhibition”. The “inhibition of mTORC2” value [6] was “do not inhibit” and the “inhibition of 4E-BP1 phosphorylation” value [8] was “no inhibition”.
With `CO[C@@H]1C[C@H](C[C@@H](C)[C@@H]2CC(=O)[C@H](C)/C=C(\C)[C@@H](O)[C@@H](OC)C(=O)[C@H](C)C[C@H](C)/C=C/C=C/C=C(\C)C(OC[C@H]3CO[C@@H](CO)CO3)C[C@@H]3CC[C@@H](C)[C@@](O)(O3)C(=O)C(=O)N3CCCC[C@H]3C(=O)O2)CC[C@H]1O` (stereo partly drawn) [I-118, (23E,25E,27E,28E,32R,33S,34R,35R,36S,39S,41S,45R,46R,55R)-45, 55-dihydroxy-41-[(1R)-2-[(1S,2R,3R)-3-hydroxy-2-methoxy-cyclohexyl]-1-methyl-ethyl]-40-[[(25, 5S)-5-(hydroxymethyl)-1,4-dioxan-2-yl]methoxy]-46-methoxy-32,33,34,35,47,48-hexamethyl-68, 69-dioxa-56-azatricyclohexatriaconta-23,25,27(47),28(48)-tetraene-49,50,51,52,53-pentone] the IC50 [1] was 1 to 10 nM, the “mTORC1 selective @ 24 hrs” value (mTORC1 over mTORC2) was “YES” and the “inhibition of the mTORC1 pathway” value [7] was “moderate concentration dependent inhibition; also recorded: strong inhibition”. For the same compound, the “inhibition of mTORC2” value [6] was “do not inhibit” and the “inhibition of 4E-BP1 phosphorylation” value [8] was “no inhibition”.
